Reference: patent EP1089763B1, “AGENTS FOR SPECIFICALLY INHIBITING OSTEOCLASTIC BONE RESORPTION” (Dietsch, Peter, priority 1998, dated 1999)

Key:
[1] = test system: Osteoklasten; settings: not told
[2] = biological target: Carboanhydrase II (Homo sapiens, UniProt P00918); settings: fluorescent DNSA-Carboanhydrase II complex, 1:1; read-out: Dissoziationskonstante KD; cited from earlier work
[3] = test system: Nierenzellen; test: Uptake into kidney cells, DNSA fluorescence displacement (Abb. 2); settings: Nierenzellen with Carboanhydrase II
Source text: Das Maximum der Anregung der Fluoreszenz liegt bei einer Wellenlänge von 320 nm, das Maximum der Emission bei 470 nm. Diese Fluoreszenz läßt sich gut von der des ungebundenen DNSA unterscheiden, da diese grün und sehr viel schwächer ist. Sie hat ihr Emissionsmaximum bei 580 nm. Die Carboanhydrase bindet DNSA im stöchiometrischen Verhältnis 1:1.

[4] = test system: Knochenresorption; test: Serum calcium after injection of parathormone in rats; type: in vivo, Ratten; settings: three days after a single dose of 10 mg/kg, Abb. 5
Source text: Die Hemmung der Knochenresorption in Ratten, die mit 1 behandelt wurden, kann an der Änderung der Calciumkonzentration im Serum nach Injektion von Parathormon demonstriert werden (Abb. 5).

[5] = test system: Knochenresooorption; test: Ovariectomised rats, osteoporosis model; type: in vivo, Ratten; settings: several months
[6] = test system: Knochenresorption; test: Strontium excretion and tibia mineral content in strontium-loaded growing rats; type: in vivo, Ratten
Description: Wachsenden Ratten - 6 Wochen alt - wurden sechsmal in Abständen von drei Tagen jeweils 2 mg SrCl2 in physiologischer Kochsalzlösung subkutan injiziert. Die Tiere bauen das Strontium analog dem Calcium in den Knochen ein. Entsprechend der Rate des Knochenumbaus wird das Strontium über Harn und Fäces während eines längeren Zeitraums wieder ausgeschieden. Nach einer 14 tägigen Latenzzeit in der sie eine calciumarme Diät erhielten, wurden ihnen verschiedene Konzentrationen von 1 i.p. apliziert und die Ausscheidung des Strontiums atomabsorptionsspektroskopisch gemessen. Die Abb.
Nach Abschluß des Versuches wurden die Tibiae präpariert und deren Gehalt an Calcium, Strontium und Phosphat bestimmt.

[7] = test system: Osteoklasten; test: Bone resorption by osteoclasts settled on dentine slices (cell culture); type: cell-based
[8] = biological target: Isoenzym Carboanhydrase II (Homo sapiens, UniProt P00918); test: Inhibition constant for carbonic anhydrase II; type: biochemical; settings: Isoenzym Carboanhydrase II expressed in osteoclasts; read-out: Inhibitorkonstante KI
[9] = test system: Erythrozyten; type: cell-based; settings: not told

Row | SMILES | membrane permeability [1] | Kd [2] [nM] | uptake into cells [3] | knochenauflösende Wirkung von Parathormon (Calciumkonzentration im Serum) [4] | Hemmwirkung auf die Knochenresooorption [5] | Nebenwirkungen [5] | Strontiumausscheidung ([6]; rats, various concentrations i.p., after SrCl2 loading and low-calcium diet, Abb. 3) | Gehalt an Calcium, Strontium und Phosphat (Tibiae) ([6]; versus control group, at the end of the experiment, Abb. 4) | resorption ([7]; in the presence of osteoclast-activating hormones) | resorption ([7]; osteoclasts on Dentinplättchen) | Ki [8] [nM] | permeability of the cell membrane [9]
1 | CN(C)c1cccc2c(S(N)(=O)=O)cccc12 [DNSA] | kann Zellmembranen passieren | 240 | – | – | – | – | – | – | – | – | – | –
2 | CCOc1ccc2nc(S(N)(=O)=O)sc2c1 [Ethoxzolamid, 6-Ethoxybenzothiaziol-2-sulfonamid, reference compound] | – | – | aufgenommen | – | – | – | – | – | – | – | – | –
3 | NS(=O)(=O)c1ccc(CNC(=S)Nc2ccc(OC3OC(CO)C(O)C(O)C3O)cc2)cc1 [compound 1, N-α-D-Mannopyranosylphenyl-N'-p-amidosulfonylbenzylthioharnstoff] | – | – | nicht aufgenommen | vollständig blockiert | Hemmwirkung | keine Nebenwirkungen | Erniedrigung der Strontiumausscheidung | deutlich höhere Konzentration | keine Resorption mehr | hören sie auf zu resorbieren | 800 | teilweise für 1 durchlässig
